Measurements from ChEMBL document CHEMBL5143733, “Discovery of (E)-3-(3-((2-Cyano-4'-dimethylaminobiphenyl-4-ylmethyl)cyclohexanecarbonylamino)-5-fluorophenyl)acrylic Acid Methyl Ester, an Intestine-Specific, FXR Partial Agonist for the Treatment of Nonalcoholic Steatohepatitis” (J Med Chem, 2022).
Each block holds one compound with its values, some of them ahead of it. Calls of active or inactive are those of the source. The rule behind the calls is not given here.

Experiments:
[1] = AUClast in Sprague-Dawley rat at 5 mg/kg, iv measured up to 24 hrs by HPLC analysis; format: ADME, organism-based; design: time < 24 hrs, dose 5 mg/kg, route iv; settings: in vivo, 24 h
[2] = Oral bioavailability in Sprague-Dawley rat at 80 mg/kg measured up to 24 hrs by HPLC analysis; format: ADME, organism-based; settings: in vivo
Mus musculus [3] = experiment: Antifibrotic activity in CDAHFD-induced nonalcoholic steatohepatitis C57BL/6J mouse model assessed as reduction in COL1A1 gene expression at 80 mg/kg, po administered daily for 4 weeks; format: functional, organism-based
[4] = Drug metabolism in Sprague-Dawley rat plasma assessed as retention time of unidentified major metabolite at 5 mg/kg, iv upto 1 hr by RP-HPLC analysis; format: ADME, organism-based; settings: in vivo
[5] = biological target: T1, Bile acid receptor (Mus musculus) (UniProt Q60641); experiment: In vivo activation of FXR in CDAHFD-induced nonalcoholic steatohepatitis C57BL/6J mouse model assessed as reduction in liver fibrosis at 80 mg/kg, po administered daily for 4 weeks by picrosirius red staining method; format: functional, organism-based
T1 sequence (whole entry): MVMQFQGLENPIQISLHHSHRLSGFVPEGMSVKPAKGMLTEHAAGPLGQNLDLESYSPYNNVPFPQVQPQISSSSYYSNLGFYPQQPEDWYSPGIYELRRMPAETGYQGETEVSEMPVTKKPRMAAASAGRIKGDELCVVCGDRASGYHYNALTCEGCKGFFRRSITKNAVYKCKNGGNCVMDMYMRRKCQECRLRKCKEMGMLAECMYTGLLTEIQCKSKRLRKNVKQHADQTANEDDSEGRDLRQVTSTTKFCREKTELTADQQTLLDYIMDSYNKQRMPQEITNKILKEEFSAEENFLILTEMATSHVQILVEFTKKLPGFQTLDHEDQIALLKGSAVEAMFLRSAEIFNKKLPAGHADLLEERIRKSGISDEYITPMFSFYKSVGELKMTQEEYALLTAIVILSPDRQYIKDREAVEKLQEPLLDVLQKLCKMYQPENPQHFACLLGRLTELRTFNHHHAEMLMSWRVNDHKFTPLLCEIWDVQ

[6] = Toxicity in CDAHFD-induced nonalcoholic steatohepatitis C57BL/6J mouse model assessed as change in amount of food intake at 80 mg/kg, po administered daily for 4 weeks; format: organism-based; settings: in vivo, 672 h
[7] = biological target: T2, Bile acid receptor (Homo sapiens) (UniProt Q96RI1); experiment: Partial agonist activity at FXR (unknown origin) expressed in CHO-K1 cells coexpressed with beta-galactosidase incubated for 3 to 16 hrs by PathHunter chemiluminescence based assay relative to GW4064; format: cell-based; settings: filed as partial agonist, time 3-16 hrs
T2 sequence (whole entry): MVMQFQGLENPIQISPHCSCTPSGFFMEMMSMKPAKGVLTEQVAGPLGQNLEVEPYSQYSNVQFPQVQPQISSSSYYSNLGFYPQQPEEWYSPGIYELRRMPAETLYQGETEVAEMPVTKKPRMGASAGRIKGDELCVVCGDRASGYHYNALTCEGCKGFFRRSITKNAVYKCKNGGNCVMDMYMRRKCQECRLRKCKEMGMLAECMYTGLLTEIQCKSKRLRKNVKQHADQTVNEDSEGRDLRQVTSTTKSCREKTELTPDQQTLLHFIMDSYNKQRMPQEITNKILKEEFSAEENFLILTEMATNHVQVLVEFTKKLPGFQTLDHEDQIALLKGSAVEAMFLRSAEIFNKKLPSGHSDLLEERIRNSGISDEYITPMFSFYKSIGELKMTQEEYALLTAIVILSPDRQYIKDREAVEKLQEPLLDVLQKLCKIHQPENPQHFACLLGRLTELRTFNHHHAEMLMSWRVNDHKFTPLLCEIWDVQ

[8] = AUClast in Sprague-Dawley rat at 80 mg/kg, po measured up to 24 hrs by HPLC analysis; format: ADME, organism-based; design: dose 80 mg/kg, time < 24 hrs, route po; settings: in vivo
[9] = Toxicity in CDAHFD-induced nonalcoholic steatohepatitis C57BL/6J mouse model assessed as reduction in serum AST level at 80 mg/kg, po administered daily for 4 weeks; format: organism-based; settings: in vivo, 672 h
[10] = Toxicity in CDAHFD-induced nonalcoholic steatohepatitis C57BL/6J mouse model assessed as change in body weight at 80 mg/kg, po administered daily for 4 weeks; format: organism-based; settings: in vivo, 672 h
[11] = biological target: T1, Bile acid receptor (Mus musculus); experiment: In vivo activation of FXR in […]-induced nonalcoholic steatohepatitis C57BL/6J mouse model assessed as improved glucose tolerance measured up to 120 mins by glucose tolerance test; format: functional
Mus musculus [12] = experiment: Antiinflammatory activity in CDAHFD-induced nonalcoholic steatohepatitis C57BL/6J mouse model assessed as reduction in IL-1beta gene expression at 80 mg/kg, po administered daily for 4 weeks; format: functional, organism-based
[13] = biological target: T1, Bile acid receptor (Mus musculus); experiment: In vivo activation of FXR in CDAHFD-induced nonalcoholic steatohepatitis C57BL/6J mouse model assessed as induction of FGF15 gene expression at 80 mg/kg, po administered daily for 4 weeks; format: functional, organism-based
[14] = biological target: T1, Bile acid receptor (Mus musculus); experiment: In vivo activation of FXR in CDAHFD-induced nonalcoholic steatohepatitis C57BL/6J mouse model assessed as induction of SHP gene expression at 80 mg/kg, po administered daily for 4 weeks; format: functional, organism-based
[15] = Clearance in Sprague-Dawley rat at 5 mg/kg, iv measured up to 24 hrs by HPLC analysis; format: ADME, organism-based; settings: in vivo
Mus musculus [16] = experiment: Antifibrotic activity in CDAHFD-induced nonalcoholic steatohepatitis C57BL/6J mouse model assessed as reduction in TIMP-1 gene expression at 80 mg/kg, po administered daily for 4 weeks; format: functional, organism-based
[17] = biological target: T1, Bile acid receptor (Mus musculus); experiment: In vivo activation of FXR in CDAHFD-induced nonalcoholic steatohepatitis C57BL/6J mouse model assessed as induction of OST-alpha gene expression at 80 mg/kg, po administered daily for 4 weeks; format: functional, organism-based
[18] = biological target: T1, Bile acid receptor (Mus musculus); experiment: In vivo activation of FXR in CDAHFD-induced nonalcoholic steatohepatitis C57BL/6J mouse model assessed as induction of IBABP gene expression at 80 mg/kg, po administered daily for 4 weeks; format: functional, organism-based
[19] = Stability in Sprague-Dawley rat plasma at 80 mg/kg, po measured after 5 hrs by RP-HPLC analysis; format: ADME, organism-based; settings: in vivo
[20] = Drug metabolism in Sprague-Dawley rat plasma assessed as (E)-3-(3-((2-Cyano-4'-dimethylaminobiphenyl-4-ylmethyl)-cyclohexanecarbonylamino)-5-fluorophenyl)acrylic Acid metabolite formation at 5 mg/kg, iv measured up to 20 to 60 mins by RP-HPLC analysis; format: ADME, organism-based; settings: in vivo, time 20-60 min
[21] = Half life in Sprague-Dawley rat at 5 mg/kg, iv measured up to 24 hrs by HPLC analysis; format: ADME, organism-based; settings: in vivo
[22] = Toxicity in CDAHFD-induced nonalcoholic steatohepatitis C57BL/6J mouse model assessed as increase in liver wet weight at 80 mg/kg, po administered daily for 4 weeks […]; format: organism-based; settings: in vivo, 672 h
[23] = Volume of distribution at steady state in Sprague-Dawley rat at 5 mg/kg, iv measured up to 24 hrs by HPLC analysis; format: ADME, organism-based; settings: in vivo, read-out: Vdss
[24] = biological target: Peroxisome proliferator-activated receptor delta (Homo sapiens, UniProt Q03181); experiment: Agonist activity at human PPAR-delta expressed in CHO-K1 cells by PathHunter assay; format: cell-based
Peroxisome proliferator-activated receptor delta, sequence (Q03181 whole entry): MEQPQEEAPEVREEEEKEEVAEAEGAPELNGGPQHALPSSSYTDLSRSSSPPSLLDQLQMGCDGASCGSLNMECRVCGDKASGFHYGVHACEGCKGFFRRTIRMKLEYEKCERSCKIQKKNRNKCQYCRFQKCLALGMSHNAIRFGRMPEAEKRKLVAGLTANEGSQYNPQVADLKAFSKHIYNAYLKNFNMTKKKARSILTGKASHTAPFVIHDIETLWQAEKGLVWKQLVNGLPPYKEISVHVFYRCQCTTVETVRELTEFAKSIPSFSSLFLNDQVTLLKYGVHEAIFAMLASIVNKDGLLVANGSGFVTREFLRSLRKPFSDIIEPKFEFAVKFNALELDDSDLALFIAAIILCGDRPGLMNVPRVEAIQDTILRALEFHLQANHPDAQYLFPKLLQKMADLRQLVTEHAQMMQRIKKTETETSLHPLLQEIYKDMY

AUClast [1]: 900 ng·h/mL
F [2]: 4%
Retention_time [4]: 5.25 min
Activity [5]: Active
Emax [7]: 53%
AUClast [8]: 1500 ng·h/mL
Activity [13]: Active
Activity [14]: Active
clearance [15]: 93.3 mL/min/kg
Activity [17]: Active
Activity [18]: Active
Stability [19]: Unstable
Drug metabolism [20]: Metabolite_Detected
half-life [21]: 4.8 min
Vd [23]: 0.7 L/kg
SMILES: COC(=O)/C=C/c1cc(F)cc(N(Cc2ccc(-c3ccc(N(C)C)cc3)c(C#N)c2)C(=O)C2CCCCC2)c1
Activity (Mus musculus [3]): Active
Activity [6]: Non-Toxic
Activity [9]: Non-Toxic
Activity [10]: Non-Toxic
Activity [11]: Active
Activity (Mus musculus [12]): Active
Activity (Mus musculus [16]): Active
Activity [22]: Non-Toxic

EC50 [24]: 6 nM
SMILES: CCCc1c(OCCCOc2ccc(OCC(=O)O)cc2)ccc(C(C)=O)c1O
